Laboratory results reported in the supplement of paper PMC10307832.

Tests used:
Crenolanib + Foretinib = compound: CC1(COc2ccc3c(c2)ncn3-c2ccc3cccc(N4CCC(N)CC4)c3n2)COC1 [Crenolanib] + COc1cc2c(Oc3ccc(NC(=O)C4(C(=O)Nc5ccc(F)cc5)CC4)cc3F)ccnc2cc1OCCCN1CCOCC1 [Foretinib] (partner 0.25 µM); assay: relative viability (nuclei count vs DMSO), 5 days (fraction); higher = more cells survive
Outline: (§1)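 Each reported value is a median over duplicate plates. It expresses relative viability: treated-well nuclei count divided by vehicle-well nuclei count. Lung cancer cell lines in 1536-well plates were dosed by pin tool a day after seeding, alone with one drug or with a fixed anchor-drug dose plus five library-drug doses (not always all listed) in √10 steps, and nuclei were counted after 5 days.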

Tivantinib + Tozasertib = compound: O=C1NC(=O)[C@@H](c2cn3c4c(cccc24)CCC3)[C@@H]1c1c[nH]c2ccccc12 [Tivantinib] + Cc1cc(Nc2cc(N3CCN(C)CC3)nc(Sc3ccc(NC(=O)C4CC4)cc3)n2)n[nH]1 [Tozasertib] (partner 0.1 µM); assay: as above
Outline: as §1

Cell Line	relative viability (Crenolanib + Foretinib; first compound 0.01 µM)	relative viability (Crenolanib + Foretinib; first compound 0.03162 µM)	relative viability (Crenolanib + Foretinib; first compound 0.1 µM)	relative viability (Crenolanib + Foretinib; first compound 0.3162 µM)	relative viability (Crenolanib + Foretinib; first compound 1 µM)	relative viability (Tivantinib + Tozasertib; first compound 0.01 µM)	relative viability (Tivantinib + Tozasertib; first compound 0.03162 µM)	relative viability (Tivantinib + Tozasertib; first compound 0.1 µM)	relative viability (Tivantinib + Tozasertib; first compound 0.3162 µM)
NCI-H1993	0.768	0.551	0.719	0.889	0.731	0.541	0.595	0.543	0.51
CAL-12T	1.15	1.05	1.18	1.33	1.22	0.416	0.337	0.259	0.293
NCI-H1623	0.99	0.888	0.86	0.859	0.838	0.388	0.424	0.441	
HCC-78	0.584	0.59		0.545	0.525	0.443	0.437	0.405	0.277
EKVX	1	0.71	0.802	0.796	0.757	0.388	0.346	0.421	
NCI-H1666	0.987	0.897	0.886	1.02	0.974	0.624	0.612	0.606	0.526
NCI-H1944	0.857	0.865	0.872	0.887	0.817	0.257	0.232	0.264	0.204
NCI-H1734	1.02	0.773	0.859	0.925	0.876	0.273	0.278	0.252	0.247
Calu-6	0.881	0.774	0.828	0.956	0.976				
EBC-1	0.102	0.104	0.0945	0.106	0.115				
A-427	1.05	0.969	1.14	1.1	1.09	0.21	0.2	0.198	0.169
NCI-H2405	1.16	1.05		1.02	1.06	0.759	0.782	0.756	0.707
NCI-H1437	1.28	1.28	1.31	1.31	1.14	0.426	0.386	0.391	0.422
NCI-H358	0.816	0.666	0.634	0.701	0.567	0.109	0.0982	0.0902	0.0802
RERF-LC-KJ	0.852	0.838	0.906	0.968	0.909	0.539	0.532	0.473	0.403
NCI-H23	1.12	1.13	0.97	0.995	1.06	0.447	0.359	0.423	0.308
IA-LM	1.37	1.1	1.08	1.22	1.3				
HCC-15	1.08	1.07	0.989	1.01	0.853	0.463	0.442	0.409	0.335
PC-14	1.01	0.904	0.952	1.06	0.933	0.635	0.558	0.594	0.379
HCC-827	1.08	1.04	1.04	1.1	0.998	0.388	0.402	0.48	0.312
LC-2-ad	1.1	1.1	0.858	0.971	0.823	0.455	0.409	0.393	0.313
NCI-H441	1.13	1.05	0.775	0.951	0.958	0.587	0.655	0.552	0.474
NCI-H322M	0.951	1.07	0.973	0.96	0.98	0.483	0.458	0.502	
EPLC-272H	0.792	0.588	0.643	0.64	0.797	0.206	0.268	0.283	0.152
COR-L23	1	0.958	0.925	0.991	0.927	0.185	0.188	0.184	0.234
NCI-H2126	1.24	1.37	0.985	1.41	1.23	0.91	0.785	0.831	0.538

Cell Line	relative viability (Crenolanib + Foretinib; first compound 0.01 µM)	relative viability (Crenolanib + Foretinib; first compound 0.03162 µM)	relative viability (Crenolanib + Foretinib; first compound 0.1 µM)	relative viability (Crenolanib + Foretinib; first compound 0.3162 µM)	relative viability (Crenolanib + Foretinib; first compound 1 µM)	relative viability (Tivantinib + Tozasertib; first compound 0.01 µM)	relative viability (Tivantinib + Tozasertib; first compound 0.03162 µM)	relative viability (Tivantinib + Tozasertib; first compound 0.1 µM)	relative viability (Tivantinib + Tozasertib; first compound 0.3162 µM)
LCLC-103H	0.947	0.88	0.874	0.826	0.622	0.426	0.493	0.474	0.374
NCI-H1975	1.06	0.969	0.847	0.94	1.04	0.773	0.744	0.645	0.714
NCI-H1793	0.669	0.895	0.64	0.608	0.689	0.427	0.329	0.353	0.222
NCI-H2085	1.01	0.845	0.847	1.04	1.12	0.764	0.798	0.755	0.749
COR-L 105	0.972	1.18	0.848	1.32	1.05	0.32	0.414	0.397	0.383
SK-LU-1	0.802	0.779	0.538	0.964	0.905	0.331	0.357	0.312	0.323
NCI-H1299	1.1	1.04	1.06	1.05	1.11				
PC-3 [JPC-3]	1.16	1.12	0.955	1.05	1.03	0.877	0.902	0.945	0.705
NCI-H661	0.972	0.969	0.99	1.07	1.02	0.365	0.363	0.354	0.356
NCI-H1703	0.32	0.293	0.321	0.313	0.269				
NCI-H2087	1.23	1.32	1.1	1.27	1.27	0.311	0.257	0.235	0.3
NCI-H1755	0.944	0.905	0.889	0.937	0.908	0.525	0.602	0.507	0.608
NCI-H2228	0.994	0.923	0.693	1.14	1.04		0.356	0.221	0.214
EMC-BAC-2	1.05	0.997	1.03	1.11	1.07	0.276	0.271	0.136	0.261
NCI-H2009	1.25	1.21	1.09	1.27	1.1	0.734	0.696	0.755	0.651
NCI-H596	0.774	0.89	0.752	0.78	1.03	1.05	0.819	0.929	0.799
NCI-H650	1.09	0.986	0.991	1.02	1	0.857	0.61	0.802	0.585
NCI-H1915	1.09	1.09	1.04	1.1	0.992	0.427	0.412	0.422	0.391
SW 1573	1.04	0.918	0.943	0.9	0.966	0.23	0.262	0.177	0.127
ChaGo-K-1	0.952	0.942	0.922	0.894	0.84	0.205	0.219	0.218	0.218
NCI-H522						0.636	0.463	0.536	0.491
NCI-H1355	1.02	1	0.94	1.07	0.906	0.561	0.488	0.541	0.489
NCI-H1651	0.884	0.967	0.883	0.94	0.787	0.617	0.678	0.672	0.71
NCI-H2023	0.785	1.01	0.942	1.05	1.02	0.337	0.325	0.268	0.308
LU99A	0.747	0.867	0.867	0.879	0.897	0.261	0.276	0.266	0.291
NCI-H3122	0.927	0.98	0.985	0.963	1.04	0.409	0.36	0.508	0.146

Cell Line	relative viability (Crenolanib + Foretinib; first compound 0.01 µM)	relative viability (Crenolanib + Foretinib; first compound 0.03162 µM)	relative viability (Crenolanib + Foretinib; first compound 0.1 µM)	relative viability (Crenolanib + Foretinib; first compound 0.3162 µM)	relative viability (Crenolanib + Foretinib; first compound 1 µM)	relative viability (Tivantinib + Tozasertib; first compound 0.01 µM)	relative viability (Tivantinib + Tozasertib; first compound 0.03162 µM)	relative viability (Tivantinib + Tozasertib; first compound 0.1 µM)	relative viability (Tivantinib + Tozasertib; first compound 0.3162 µM)
NCI-H1648						0.71	0.385	0.425	
LOU-NH91	0.969	0.914	0.893	0.888	0.892	0.663	0.675	0.593	0.537
NCI-H647	1.25	1.09	1.11	1.23	1.28	0.38	0.265	0.306	0.137
NCI-H838	1.11	1.03	1.04	1.16	1.06	0.26	0.273	0.262	0.322
HARA	0.956	0.979	0.84	0.912	0.911	0.122	0.12	0.104	0.0992
SK-MES-1	1.05	0.876	0.974	0.936	1.14	0.903	0.904	0.824	0.862
NCI-H1563	0.952	0.884	0.852	0.899	0.948				
NCI-H2342	1.01	1.02	1	1.2	0.816	0.556	0.51	0.51	0.394
LXF-289	1.02	0.971	0.942	0.989	0.977	0.176	0.129	0.202	0.204
SW 900	0.69	0.91	0.818	1.15	0.848	0.642	0.577	0.636	0.576
HOP-62	1.19	1.23	1.09	1.08	1.15	0.383	0.352	0.385	0.377
LK-2	1.27	1.66	1.12	1.35	1.36	0.177		0.199	0.191
HCC-44						0.968	0.712	0.887	0.275
BEN	0.84	0.44	0.659	0.819	0.656	0.529	0.549	0.574	0.537
NCI-H2347	0.879	0.757		1.02	0.901	0.71	0.6	0.53	0.624
NCI-H1395	1.03	0.97	1.01	1.07	0.936	0.76	0.747	0.718	0.689
A549	0.996	0.894	0.891	1.04	1.01				
201T	1.19	1.1	1.03	1.12	1.06	0.985	0.897	0.919	0.88
NCI-H2170	0.961	0.989	0.719	0.99	1.02	0.771	0.619	0.749	
NCI-H520	0.671	0.89	0.651	0.724	0.746	0.471	0.494	0.395	0.434
NCI-H727	0.915	0.975	0.835	0.893	0.809	0.641	0.558	0.463	0.515
HCC-366	0.918	0.954	0.956	0.942	0.938	0.103	0.114	0.115	0.0949
NCI-H1650	1.34	1.27	1.2	1.23	0.945	0.411	0.467	0.357	0.434
ABC-1	1.43	0.889	1.13	1.12	1.46	0.209	0.155	0.215	0.223
LCLC-97TM1	1.01	0.867	0.958	0.979	0.971	0.25	0.218	0.25	0.218
